Source: paper PMC7407491, “The Addition of a Synthetic LPS-Targeting Domain Improves Serum Stability While Maintaining Antimicrobial, Antibiofilm, and Cell Stimulating Properties of an Antimicrobial Peptide” (Biomolecules, 2020)
Converted amounts (≈) assume the structure as drawn. Read-outs that look alike come from different tables or passages of the source.

What was measured:
Escherichia coli = experiment: Antibiogram of clinical isolate; format: cell-based; design: key to Interpretation: R represents “resistant”; I represents “intermediate”; S represents “sensitive”; conditions: multi-drug resistant veterinary clinical isolate
Protocol: (§1) Veterinary clinical isolates, including Salmonella typhimurium, multi-drug resistant Escherichia coli, methicillin-resistant Staphylococcus aureus (MRSA), and methicillin-resistant Staphylococcus pseudointermedius (MRSP), were kindly provided by Dr. H. Cai (Department of Pathobiology, University of Guelph, ON, Canada). An antibiogram for these strains is available in the supplementary text (Table S1). Gram-negative strains were cultured in Luria−Bertani (LB) broth. Gram-positive strains were cultured in Tryptic soy broth (TSB). Both cultures were grown under aerobic conditions at 37 °C.
(§2) 1 Where R represents “resistant”, I represents “intermediate” and S represents “sensitive”.
(§3) 2 MIC represents the minimal inhibitory concentration of the antibiotic in mcg/mL.
(§4) 3 mm represents the diameter zone of inhibition against antibiotic disc.

[1] = test system: Methicillin Resistant Staphylococcus aureus; experiment: Antibiogram of clinical isolate; format: cell-based; design: key to Interpretation: R represents “resistant”; I represents “intermediate”; S represents “sensitive”; conditions: veterinary clinical isolate
Protocol: as §1, §2, §3, §4

[2] = test system: Methicillin Resistant Staphylococcus pseudointermedius; experiment: Antibiogram of clinical isolate; format: cell-based; design: key to Interpretation: R represents “resistant”; I represents “intermediate”; S represents “sensitive”; conditions: veterinary clinical isolate
Protocol: as §1, §2, §3, §4

MRSA = format: cell-based, Methicillin-resistant Staphylococcus aureus; conditions: 2 h, pH 7
Protocol: as §1
(§5) The minimum bactericidal concentration (MBC) of SynPG-1 against the tested pathogens was identified through a broth macrodilution antimicrobial assay as previously described, with some modification. […] The buffer volume was adjusted to accommodate the addition of SynPG-1 and PG-1 so that the final solution volume was 0.5 mL for each tested concentration. Final peptide concentrations ranged from 0.1 µg/mL to 8 µg/mL. PG-1 at the known MBC (2 µg/mL E. coli; 4 µg/mL S. typhimurium; 0.5 µg/mL MRSP; 0.5 µg/mL MRSA) was considered the in-house positive control, while the suspension containing no peptide was considered the negative control. Experimental and control tubes were incubated for 2 h at 37 °C without shaking to allow for bactericidal action to occur. […] Colony numbers from each plate were recorded. […]

MRSP = format: cell-based, Methicillin-resistant Staphylococcus pseudointermedius; conditions: 2 h, pH 7
Protocol: as §1, §5

MRSA biofilm = experiment: Biofilm inhibition assay, crystal violet; format: cell-based, Methicillin-resistant Staphylococcus aureus
Protocol: Plates were placed in a static incubator at 37 °C for 48 h; the time required for untreated wells to form biofilm. After incubation, treated media was removed and wells were rinsed with 155 µL of PBS to remove planktonic cells. After sufficient air drying of wells, 150 µL of 0.1% Crystal violet stain was added to each well and incubated at room temperature for 30 min, after which, dye was removed and wells were rinsed again with 155 µL of PBS. After sufficient drying of wells, 150 µL of 70% ethanol solution was added to each well and incubated at room temperature for 30 min. After 30 min, 100 µL of each well was added to a new 96-well plate and absorbance was measured at an OD of 590 nm.

[3] = test system: pre-formed S. typhimurium biofilm; experiment: Pre-formed biofilm destruction assay, crystal violet; format: cell-based, Salmonella typhimurium; conditions: 64 µg/mL, 3 h treatment, crystal violet
Protocol: To test the destruction of preformed biofilms, in a 96-well plate, 15 µL of overnight culture, of either E. coli, S. typhimurium, or MRSA, was added to 150 µL of minimal salt media (40 mM […]; 22 mM KH2PO4; […] NH4CL; 740 mM NaCl; 2 mM MgSO4; 0.1 mM CaCl2; 22 mM supplemented with D-Glucose) in each well. Plates were placed in a static incubator at 37 °C for 48 h; the time required for untreated wells to form biofilm. After formation, minimal salt media was removed and wells were treated with 155 µL of minimal salt media containing PG-1 or SynPG-1. […] Plates were placed in a static incubator at 37 °C for 3 h. After 3 h, treated media was removed and wells were rinsed with 155 µL of PBS to remove planktonic cells. After sufficient drying of wells, 150 µL of 0.1% crystal violet stain was added to each well and incubated at room temperature for 30 min, after which dye was removed and wells were rinsed again with 155 µL of PBS. After sufficient drying of wells, 150 µL of 70% ethanol solution was added to each well and incubated at room temperature for 30 min. After 30 min, 100 µL of each well was added to a new 96-well plate and absorbance was measured at an OD of 590 nm.

IPEC-J2 cells = experiment: In vitro cell migration, transwell assay; format: cell-based, porcine; conditions: transwell 8-micron, serum-free DMEM F-12, 5 to 20 µg/mL, 16 h, Hoechst 33342 count; SynPG-1 not significant at higher concentrations
Protocol: A cell line, established from intestinal porcine enterocytes, isolated from the jejunum of a neonatal unsuckled piglet (IPEC-J2 cells, DSMZ), was grown in monolayer culture in Dulbecco’s modified Eagle’s medium (high glucose), supplemented with 10% fetal bovine serum (FBS) from Invitrogen, 100 IU/mL penicillin, and 100 µg/mL streptomycin. Cultures were maintained in a 5% CO2 humidified atmosphere at 37 °C and passaged every 2–3 days, with detachment via the Trypsin-EDTA solution (Sigma).
To evaluate migration of IPEC-J2 cells, 8-micron pore-sized cell culture transwell inserts were used (Millipore Inc, Temecula, CA, USA). A total of 1 × 10^5 cells were plated in the upper inserts of the transwell and placed within 24-well plates, containing serum-free DMEM F-12 in the absence and presence of SynPG-1 or PG-1, at concentrations ranging from 5 µg/mL to 20 µg/mL. After incubation for 16 h, the cells were fixed with 4% (w/v) paraformaldehyde. […] Migration was quantified by cell enumeration through Hoechst 33342 staining of cell nuclei (Thermo Fisher Scientific, Mississauga, ON, Canada). The results are represented as the relative fold increase in migrated cells when compared to the baseline migration of IPEC-J2 cells in serum-free media after 16 h.

[4] = 25% porcine intestinal fluid (pH 6.5) in PBS, 1 mg/mL peptide, 1 h 37 °C with shaking; residual activity vs E. coli at 20 µg/mL, colony count; three independent experiments
Protocol: Porcine digestive fluids were collected, as previously described by Wang et al. [44]. […] The gastrointestinal tract was kept at 4 °C during dissection, and collection of contents from the stomach and upper small intestine (duodenum and jejunum) was conducted within 5 h of sacrifice. Contents were centrifuged at 10,000 rpm (9600× g) for 10 min at 4 °C, and supernatant fluid was collected and stored at −80 °C until its use in the stability experiment. The pH of the collected supernatants were 3.5 and 6.5 for gastric fluid and duodenum fluid, respectively.
Procedures similar to those used by Egger et al. [45] were used for this experiment. […] Suspension containing no peptide was considered the negative control. After incubation, 10 µL of the incubated solutions was added for a total volume of 0.5 mL, consisting of 20 µL of mid-logarithmic phase E. coli cells, diluted to a concentration of about 1 × 10^5 CFU/mL, and 470 µL of 20 mM sodium phosphate buffer (pH 7). […] Stability in porcine digestive fluid was evaluated as the relative colony growth on plates from bacterial grown with digestive fluid and peptide treatments, in comparison to plates grown from bacteria grown with digestive fluid alone.
Stability was evaluated by comparing the mean growth of colonies on plates treated with peptides incubated in digestive fluids to colonies grown when treated without peptide. […]

A. baumanni biofilm = conditions: tested alone or with an antibiotic; reduction in crystal violet staining only; cited from earlier work
Source text: Although many have studied the antimicrobial potential of PG-1, its anti-biofilm properties have only been tested against a few species, including Streptococcus mutans and Acinetobacter baumanni. Since the composition of the extracellular polymeric substance (EPS) of a biofilm can vary widely from species to species, further investigation into the PG-1′s spectrum of antibiofilm activity is necessary. To do so, we evaluated the effect of PG-1 and SynPG-1 on the disruption and formation of biofilms from three pathogenic MDR bacteria and measured the remaining viable pathogens. ...

[5] = Escherichia coli, read-out: MIC
[6] = Staphylococcus aureus, read-out: MIC

| Molecule | MIC (Escherichia coli; [5]) | Interpretation (Escherichia coli) | diameter zone of inhibition against antibiotic disc (Escherichia coli) | MIC [1, 6] | Interpretation [1] | diameter zone of inhibition against antibiotic disc [1] | MIC ([2]; Staphylococcus, read-out: MIC) | Interpretation [2] | diameter zone of inhibition against antibiotic disc [2] | MBC (MRSA) | MBC (MRSP) | Concentration at which inhibition of biofilm formation was seen (MRSA biofilm; minimal salt media, 48 h 37 °C static, crystal violet OD 590 nm, p < 0.05 vs control, concentration dependent) | Effect on biofilm formation at the concentration where SynPG-1 began to reduce it (MRSA biofilm; same concentration as SynPG-1 onset (2 µg/mL), crystal violet, 48 h) | Effect on pre-formed biofilm at 64 µg/mL [3] | Concentration at which cell migration increased significantly (IPEC-J2 cells) | Antimicrobial activity after incubation in 25% porcine intestinal fluid [4] | Antibiofilm activity (A. baumanni biofilm) | MIC (Escherichia coli) | MIC [1] | MIC [2] |
| --- | --- | --- | --- | --- | --- | --- | --- | --- | --- | --- | --- | --- | --- | --- | --- | --- | --- | --- | --- | --- |
| CNC(C)C1CCC(N)C(OC2C(N)CC(N)C(OC3OCC(C)(O)C(NC)C3O)C2O)O1 (centres unmarked) [Gentamicin] | 2.6 µg/mL (≈ 5.44 µM) | S | 18 mm | 31 µg/mL (≈ 64.9 µM) | R | 9 mm | 7.9 µg/mL (≈ 16.5 µM) | I | 14 mm | – | – | – | – | – | – | – | – | – | – | – |
| CC(=O)OCC1=C(C(=O)O)N2C(=O)[C@@H](NC(=O)Cc3cccs3)[C@H]2SC1 [Cephalothin] | > 101 µg/mL | R | 6 mm | 2.2 µg/mL (≈ 5.55 µM) | R | 25 mm | 1.4 µg/mL (≈ 3.53 µM) | R | 27 mm | – | – | – | – | – | – | – | – | – | – | – |
| CN1CCN(c2c(F)cc3c(=O)c(C(=O)O)cn4c3c2OCN4C)CC1 [Marbofloxacin] | – | R | 6 mm | – | S | 27 mm | – | R | 6 mm | – | – | – | – | – | – | – | – | – | – | – |
| C[C@@H]1CN(c2c(F)c(F)c3c(=O)c(C(=O)O)cn(C4CC4)c3c2F)C[C@H](C)N1 [Orbifloxacin] | > 40 µg/mL | R | 6 mm | 0.25 µg/mL (≈ 0.632 µM) | S | 27 mm | > 40 µg/mL | R | 6 mm | – | – | – | – | – | – | – | – | – | – | – |
| CN(C)[C@@H]1C(O)=C(C(N)=O)C(=O)[C@@]2(O)C(O)=C3C(=O)c4c(O)cccc4[C@@](C)(O)[C@H]3C[C@@H]12 [Tetracycline] | 16 µg/mL (≈ 36 µM) | R | 13 mm | 0.42 µg/mL (≈ 0.945 µM) | S | 31 mm | > 33 µg/mL | R | 8 mm | – | – | – | – | – | – | – | – | – | – | – |
| CC1(C)S[C@@H]2[C@H](NC(=O)[C@H](N)c3ccccc3)C(=O)N2[C@H]1C(=O)O [Ampicillin] | > 46 µg/mL | R | 6 mm | 19 µg/mL (≈ 54.4 µM) | R | 11 mm | 12 µg/mL (≈ 34.3 µM) | R | 13 mm | – | – | – | – | – | – | – | – | – | – | – |
| CC(C)C[C@H](NC(=O)[C@H](CCCNC(=N)N)NC(=O)CNC(=O)CNC(=O)[C@@H](N)CCCNC(=N)N)C(=O)N[C@H]1CSSC[C@@H](C(=O)N[C@H](C(=O)NCC(=O)N[C@@H](CCCNC(=N)N)C(N)=O)C(C)C)NC(=O)[C@H](C(C)C)NC(=O)[C@@H]2CSSC[C@H](NC(=O)[C@H](Cc3ccc(O)cc3)NC1=O)C(=O)N[C@@H](CCCNC(=N)N)C(=O)N[C@@H](CCCNC(=N)N)C(=O)N[C@@H](CCCNC(=N)N)C(=O)N[C@@H](Cc1ccccc1)C(=O)N2 [PG-1, Protegrin-1] | – | – | – | – | – | – | – | – | – | 0.5 (0.18) μg/mL | 0.5 (0.18) μg/mL | 8 µg/mL | significant promotion of biofilm formation | did not demonstrate a significant reduction | 20 µg/mL | mean % growth of control increased for SynPG-1 but not PG-1 | no antibiofilm activity | – | – | – |
| Amoxicillin-clavulanate | – | R | 8 mm | – | R | 16 mm | – | R | 24 mm | – | – | – | – | – | – | – | – | > 64 µg/mL | 14 µg/mL | 2.9 µg/mL |
| Trimethoprim-sulfamethoxazole | – | R | 6 mm | – | S | 31 mm | – | R | 6 mm | – | – | – | – | – | – | – | – | > 10 µg/mL | <= 4.1 mcg/mL | > 10 µg/mL |
